Results taken from publication PMC7201279, “Structures of substrate- and product-bound forms of a multi-domain copper nitrite reductase shed light on the role of domain tethering in protein complexes” (IUCrJ, 2020).

Key:
Hd 1NES1NiR = biological target: T1, Hd 1NES1NiR (Hyphomicrobium denitrificans, UniProt N0B9M5); test: X-ray crystal structure (nitrite-soaked crystal); type: binding; details: 100 mM NaNO2 soak, pH 5.3; catalytic T2Cu site, side-on, two of three monomers; third monomer holds NO
T1 construct: gene HYPDE_25578; N-terminal cupredoxin-tethered three-domain CuNiR; predicted signal peptide removed; 6xHis-tag cut with TEV; E. coli BL21(DE3), pET-26b(+); Cu-loaded; hexamer (dimer of trimers)
T1 sequence (N0B9M5 38-486): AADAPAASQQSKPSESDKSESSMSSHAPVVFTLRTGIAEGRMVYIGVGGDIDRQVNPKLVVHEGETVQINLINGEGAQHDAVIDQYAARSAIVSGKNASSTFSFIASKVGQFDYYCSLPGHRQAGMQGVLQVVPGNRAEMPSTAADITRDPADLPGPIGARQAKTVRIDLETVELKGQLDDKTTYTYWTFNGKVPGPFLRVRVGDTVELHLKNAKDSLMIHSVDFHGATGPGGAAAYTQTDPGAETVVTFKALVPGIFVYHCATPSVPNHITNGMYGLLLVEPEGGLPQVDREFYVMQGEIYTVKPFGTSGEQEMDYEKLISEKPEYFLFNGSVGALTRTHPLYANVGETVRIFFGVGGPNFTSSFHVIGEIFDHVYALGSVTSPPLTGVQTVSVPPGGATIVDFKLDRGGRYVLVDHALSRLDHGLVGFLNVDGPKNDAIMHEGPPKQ

[1] = biological target: N-terminal cupredoxin-tethered three-domain copper-containing nitrite reductase from Hyphomicrobium denitrificans strain 1NES1 (Hyphomicrobium denitrificans strain 1NES1); test: SEC; HiLoad 16/600 Superdex 200 pg, 100 mM Tris-HCl pH 8.0, 500 mM NaCl, 10% (v/v) glycerol, 1.0 ml/min; mass estimated from a calibration curve of marker proteins

Row | Compound | X-ray crystal structure (nitrite-soaked crystal) (Hd 1NES1NiR) | stoichiometry N [1]
1 | O=NO [NO2, nitrite] | The NO2 ^− is bound to the T2Cu in a side-on conformation | –
2 | N-terminal cupredoxin-tethered three-domain copper-containing nitrite reductase from Hyphomicrobium denitrificans strain 1NES1 (enzyme) | – | 6
